Experimental data taken from patent US7074789B2, “Kinase inhibitors” (Amgen Inc., priority 1999, dated 2006).
Values joined by “and” are separate entries in the source; they are usually repeats but may differ in a detail not shown here. Identical values can stand only once. Like-named read-outs stand apart in the source and are kept apart here.

Key:
Assay type in all cases: biochemical
Lck = target: T1, Lck (Homo sapiens, UniProt P06239); assay: Kinase inhibition assay (33P transfer), Lck; details: read-out: Lck-1
T1 construct: Kinases are expressed as either kinase domains or full length constructs; made in house
How it was run: (§1)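 Kinase domains or full-length kinases, GST- or His-tagged and expressed in E. coli or baculovirus/High Five cells, transferred 33PO4 from ATP onto plate-bound poly(Glu,Tyr) 4:1 or poly(Arg,Ser) 3:1. After incubation, plates were washed with 0.5% phosphoric acid and counted by liquid scintillation.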

Lyn = target: T2, Lyn (Homo sapiens, UniProt P07948); assay: Kinase inhibition assay (33P transfer), Lyn; details: Table 6, Lyn-1 kinase inhibition class
T2 construct: Kinases are expressed as either kinase domains or full length constructs; made in house
How it was run: (§2)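 Steps: coat wells with poly(Glu,Tyr) 4:1 or poly(Arg,Ser) 3:1; add purified kinase, [33P]ATP and inhibitor; incubate; wash with 0.5% phosphoric acid; add liquid scintillant; count. IC50 corresponds to half-maximal reduction of bound 33P.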

Src = target: T3, Src (Homo sapiens, UniProt P12931); assay: Kinase inhibition assay (33P transfer), Src; details: Table 6, Src-1 kinase inhibition class
T3 construct: Kinases are expressed as either kinase domains or full length constructs; made in house
How it was run: as §2

Fyn = target: T4, Fyn (Homo sapiens, UniProt P06241); assay: Kinase inhibition assay (33P transfer), Fyn; details: read-out: Fyn-1
T4 construct: Kinases are expressed as either kinase domains or full length constructs; made in house
How it was run: as §2

Zap-70 = target: T5, Zap-70 (Homo sapiens, UniProt P43403); assay: Kinase inhibition assay (33P transfer), Zap-70; details: read-out: Zap-1
T5 construct: Kinases are expressed as either kinase domains or full length constructs; made in house
T5 sequence (P43403 1-619): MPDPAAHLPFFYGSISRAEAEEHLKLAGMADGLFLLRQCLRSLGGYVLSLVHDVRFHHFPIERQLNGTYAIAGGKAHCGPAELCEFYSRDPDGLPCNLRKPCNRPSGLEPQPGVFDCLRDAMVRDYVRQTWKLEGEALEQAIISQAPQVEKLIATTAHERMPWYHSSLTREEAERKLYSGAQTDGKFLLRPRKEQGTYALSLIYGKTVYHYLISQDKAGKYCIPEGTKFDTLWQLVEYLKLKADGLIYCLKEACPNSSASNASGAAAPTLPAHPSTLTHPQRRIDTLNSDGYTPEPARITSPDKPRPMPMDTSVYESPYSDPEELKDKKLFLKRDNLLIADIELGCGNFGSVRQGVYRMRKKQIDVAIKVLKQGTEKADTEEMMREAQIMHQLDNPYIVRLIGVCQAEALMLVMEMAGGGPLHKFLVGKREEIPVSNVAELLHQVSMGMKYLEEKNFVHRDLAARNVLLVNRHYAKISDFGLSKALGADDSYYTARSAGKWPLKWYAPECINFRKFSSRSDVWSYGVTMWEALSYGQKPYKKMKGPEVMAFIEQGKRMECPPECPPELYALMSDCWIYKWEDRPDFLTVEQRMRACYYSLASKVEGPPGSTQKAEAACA
How it was run: as §1

Itk = target: T6, Itk (Homo sapiens, UniProt Q08881); assay: Kinase inhibition assay (33P transfer), Itk; details: read-out: Itk-1
T6 construct: Kinases are expressed as either kinase domains or full length constructs; made in house
T6 sequence (Q08881 1-620): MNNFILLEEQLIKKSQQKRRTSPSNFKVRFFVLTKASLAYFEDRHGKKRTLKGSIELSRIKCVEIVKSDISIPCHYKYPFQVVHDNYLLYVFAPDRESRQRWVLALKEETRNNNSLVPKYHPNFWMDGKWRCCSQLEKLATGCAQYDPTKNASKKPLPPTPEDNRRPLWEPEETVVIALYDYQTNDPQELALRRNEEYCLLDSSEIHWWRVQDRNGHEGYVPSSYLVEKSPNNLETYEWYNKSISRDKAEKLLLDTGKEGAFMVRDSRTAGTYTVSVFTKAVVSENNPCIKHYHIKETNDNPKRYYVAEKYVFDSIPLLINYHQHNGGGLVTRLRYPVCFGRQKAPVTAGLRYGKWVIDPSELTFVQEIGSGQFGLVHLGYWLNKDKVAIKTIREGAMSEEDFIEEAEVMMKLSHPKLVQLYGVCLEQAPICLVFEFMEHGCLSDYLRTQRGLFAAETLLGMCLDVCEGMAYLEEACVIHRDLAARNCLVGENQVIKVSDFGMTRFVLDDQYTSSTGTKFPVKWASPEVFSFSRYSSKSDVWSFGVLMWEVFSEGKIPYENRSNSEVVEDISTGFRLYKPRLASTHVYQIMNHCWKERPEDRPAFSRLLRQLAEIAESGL
How it was run: as §2

EGFR = target: T7, EGFR (Homo sapiens, UniProt P00533); assay: Kinase inhibition assay (33P transfer), EGFR; details: Table 2, kinase inhibition class; read-out: EGFR-1
T7 construct: Kinases are expressed as either kinase domains or full length constructs; made in house
How it was run: as §2

ErbB2 = target: T8, ErbB2 (Homo sapiens, UniProt P04626); assay: Kinase inhibition assay (33P transfer), ErbB2; details: read-out: ErbB2-2
T8 construct: Kinases are expressed as either kinase domains or full length constructs; made in house
How it was run: as §2

Kdr = target: T9, Kdr (Homo sapiens, UniProt P35968); assay: Kinase inhibition assay (33P transfer), Kdr; details: read-out: KDR-1
T9 construct: Kinases are expressed as either kinase domains or full length constructs; made in house
How it was run: as §1

Flt-1 = target: T10, Flt-1 (Homo sapiens, UniProt P17948); assay: Kinase inhibition assay (33P transfer), Flt-1
T10 construct: Kinases are expressed as either kinase domains or full length constructs; made in house
How it was run: as §2

c-Met = target: T11, c-Met (Homo sapiens, UniProt P08581); assay: Kinase inhibition assay (33P transfer), c-Met; details: Table 2, kinase inhibition class; read-out: Met-1
T11 construct: Kinases are expressed as either kinase domains or full length constructs; made in house
How it was run: as §2

AKT = target: T12, AKT (Homo sapiens, UniProt Q9Y243); assay: Kinase inhibition assay (33P transfer), AKT; details: Table 2, kinase inhibition class; read-out: AKT3-1
T12 construct: Kinases are expressed as either kinase domains or full length constructs; made in house
How it was run: as §1

IGFR-1 = target: T13, IGFR-1 (Homo sapiens, UniProt P08069); assay: Kinase inhibition assay, IGFR-1 (Table 2); details: Table 2, kinase inhibition class
T13 construct: Kinases are expressed as either kinase domains or full length constructs; made in house

PDGFRB [1] = target: T14, PDGFRB (Homo sapiens, UniProt P09619); assay: Kinase inhibition assay (33P transfer), PDGFRB; details: read-out: PDGFRB-1
T14 construct: Kinases are expressed as either kinase domains or full length constructs; made in house

Hck-1 = target: T15, Hck-1 (Homo sapiens, UniProt P08631); assay: Kinase inhibition assay (33P transfer), Hck; details: Table 6, Hck-1 kinase inhibition class
T15 construct: Kinases are expressed as either kinase domains or full length constructs; made in house

ErbB4 = target: T16, ErbB4 (Homo sapiens, UniProt Q15303); assay: Kinase inhibition assay (33P transfer), ErbB4; details: read-out: ErbB4-1
T16 construct: Kinases are expressed as either kinase domains or full length constructs; made in house

Ret-1 = target: T17, Ret-1 (Homo sapiens, UniProt P07949); assay: Kinase inhibition assay (33P transfer), Ret; details: Table 6, Ret-1 kinase inhibition class
T17 construct: Kinases are expressed as either kinase domains or full length constructs; made in house

FGFR1 = target: T18, FGFR1 (Homo sapiens, UniProt P11362); assay: Kinase inhibition assay (33P transfer), FGFR1; details: read-out: FGFR1-1
T18 construct: Kinases are expressed as either kinase domains or full length constructs; made in house

PDGFRB [2] = target: T14, PDGFRB; assay: Kinase inhibition assay (33P transfer), PDGFRB; details: read-out: PDGFRB-1; remark: listed apart in the source

T2 sequence (P07948 whole entry, species assumed, the tested form may be a part): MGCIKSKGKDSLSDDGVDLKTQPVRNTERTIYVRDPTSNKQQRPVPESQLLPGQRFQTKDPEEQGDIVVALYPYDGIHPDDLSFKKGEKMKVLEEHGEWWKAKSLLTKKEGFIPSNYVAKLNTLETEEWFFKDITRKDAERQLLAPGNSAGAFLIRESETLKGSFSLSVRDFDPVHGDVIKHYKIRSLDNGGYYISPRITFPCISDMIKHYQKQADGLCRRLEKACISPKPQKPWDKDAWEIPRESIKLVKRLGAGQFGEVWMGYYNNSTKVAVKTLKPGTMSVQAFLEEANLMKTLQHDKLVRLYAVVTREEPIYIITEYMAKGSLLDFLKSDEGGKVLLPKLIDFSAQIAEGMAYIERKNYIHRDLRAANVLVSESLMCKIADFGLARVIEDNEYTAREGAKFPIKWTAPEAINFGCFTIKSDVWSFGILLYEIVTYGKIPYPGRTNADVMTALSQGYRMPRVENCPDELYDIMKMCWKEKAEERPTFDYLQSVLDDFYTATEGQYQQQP
T10 sequence (P17948 27-1338, species assumed): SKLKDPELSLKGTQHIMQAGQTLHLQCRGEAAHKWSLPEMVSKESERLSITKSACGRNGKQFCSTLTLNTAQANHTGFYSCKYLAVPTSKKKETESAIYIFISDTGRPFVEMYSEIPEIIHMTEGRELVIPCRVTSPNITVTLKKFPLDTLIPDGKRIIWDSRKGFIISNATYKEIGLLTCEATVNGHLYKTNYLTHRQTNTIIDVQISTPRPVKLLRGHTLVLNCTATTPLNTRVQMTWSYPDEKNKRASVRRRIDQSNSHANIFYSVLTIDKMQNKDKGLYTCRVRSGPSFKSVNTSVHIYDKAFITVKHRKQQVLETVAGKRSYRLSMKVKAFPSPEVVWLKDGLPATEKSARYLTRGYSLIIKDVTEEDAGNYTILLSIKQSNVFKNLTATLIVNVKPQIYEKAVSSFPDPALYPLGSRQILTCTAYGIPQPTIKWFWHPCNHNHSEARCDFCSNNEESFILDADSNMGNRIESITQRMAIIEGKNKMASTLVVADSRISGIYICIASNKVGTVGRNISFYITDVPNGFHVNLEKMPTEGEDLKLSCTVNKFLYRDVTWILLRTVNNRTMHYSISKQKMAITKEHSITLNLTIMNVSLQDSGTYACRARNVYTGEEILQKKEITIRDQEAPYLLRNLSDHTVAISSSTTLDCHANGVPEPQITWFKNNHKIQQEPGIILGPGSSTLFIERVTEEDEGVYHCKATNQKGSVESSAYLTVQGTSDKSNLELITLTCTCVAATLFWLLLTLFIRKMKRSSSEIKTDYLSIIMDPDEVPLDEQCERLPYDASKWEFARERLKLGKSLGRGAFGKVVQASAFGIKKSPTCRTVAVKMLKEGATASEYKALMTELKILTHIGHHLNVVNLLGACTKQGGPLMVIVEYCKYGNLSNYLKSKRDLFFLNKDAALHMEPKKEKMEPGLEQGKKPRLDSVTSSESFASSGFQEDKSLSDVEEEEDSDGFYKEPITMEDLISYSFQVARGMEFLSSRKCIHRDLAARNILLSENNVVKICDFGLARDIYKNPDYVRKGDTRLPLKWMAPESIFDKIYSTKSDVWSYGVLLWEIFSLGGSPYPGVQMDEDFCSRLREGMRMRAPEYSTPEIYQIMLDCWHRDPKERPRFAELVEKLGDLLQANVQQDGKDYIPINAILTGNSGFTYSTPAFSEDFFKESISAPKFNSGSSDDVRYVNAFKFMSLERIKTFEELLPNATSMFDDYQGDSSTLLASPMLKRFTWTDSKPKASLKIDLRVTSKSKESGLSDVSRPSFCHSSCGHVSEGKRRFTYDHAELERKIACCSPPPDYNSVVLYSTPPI
T11 sequence (P08581 25-1390): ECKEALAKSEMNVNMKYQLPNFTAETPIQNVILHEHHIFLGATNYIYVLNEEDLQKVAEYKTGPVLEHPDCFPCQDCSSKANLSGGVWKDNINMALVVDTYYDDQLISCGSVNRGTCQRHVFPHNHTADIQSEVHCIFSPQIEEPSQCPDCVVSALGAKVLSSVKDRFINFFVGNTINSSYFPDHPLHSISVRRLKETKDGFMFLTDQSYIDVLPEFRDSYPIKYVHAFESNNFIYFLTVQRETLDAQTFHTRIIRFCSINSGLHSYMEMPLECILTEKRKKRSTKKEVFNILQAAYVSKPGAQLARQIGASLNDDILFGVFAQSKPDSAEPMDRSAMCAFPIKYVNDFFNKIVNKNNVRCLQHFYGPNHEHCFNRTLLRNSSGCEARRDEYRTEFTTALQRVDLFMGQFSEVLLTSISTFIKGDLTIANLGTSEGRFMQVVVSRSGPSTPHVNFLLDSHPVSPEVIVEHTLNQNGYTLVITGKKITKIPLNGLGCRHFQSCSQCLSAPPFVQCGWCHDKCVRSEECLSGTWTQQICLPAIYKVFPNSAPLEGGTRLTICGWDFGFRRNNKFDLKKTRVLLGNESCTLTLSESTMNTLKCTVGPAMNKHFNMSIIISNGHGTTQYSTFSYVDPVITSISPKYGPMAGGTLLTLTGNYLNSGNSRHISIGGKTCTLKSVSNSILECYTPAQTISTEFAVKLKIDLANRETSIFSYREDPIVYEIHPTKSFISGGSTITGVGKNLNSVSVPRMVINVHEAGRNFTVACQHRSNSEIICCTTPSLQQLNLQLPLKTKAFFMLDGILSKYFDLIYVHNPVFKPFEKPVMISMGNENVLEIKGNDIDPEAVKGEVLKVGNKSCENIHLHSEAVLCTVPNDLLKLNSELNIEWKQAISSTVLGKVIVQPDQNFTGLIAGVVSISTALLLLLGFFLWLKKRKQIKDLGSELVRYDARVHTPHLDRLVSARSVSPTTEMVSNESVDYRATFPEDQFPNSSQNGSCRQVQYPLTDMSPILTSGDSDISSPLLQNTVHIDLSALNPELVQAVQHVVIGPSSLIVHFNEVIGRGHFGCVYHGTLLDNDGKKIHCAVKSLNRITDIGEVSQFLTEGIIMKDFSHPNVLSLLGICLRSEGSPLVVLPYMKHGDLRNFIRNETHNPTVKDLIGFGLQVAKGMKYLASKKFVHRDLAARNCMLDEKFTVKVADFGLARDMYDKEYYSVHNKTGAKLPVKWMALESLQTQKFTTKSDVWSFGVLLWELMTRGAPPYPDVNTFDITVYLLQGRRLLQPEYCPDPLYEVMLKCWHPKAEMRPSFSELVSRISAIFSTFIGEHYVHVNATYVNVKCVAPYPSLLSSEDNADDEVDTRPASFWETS
T3 sequence (P12931 whole entry, species assumed, the tested form may be a part): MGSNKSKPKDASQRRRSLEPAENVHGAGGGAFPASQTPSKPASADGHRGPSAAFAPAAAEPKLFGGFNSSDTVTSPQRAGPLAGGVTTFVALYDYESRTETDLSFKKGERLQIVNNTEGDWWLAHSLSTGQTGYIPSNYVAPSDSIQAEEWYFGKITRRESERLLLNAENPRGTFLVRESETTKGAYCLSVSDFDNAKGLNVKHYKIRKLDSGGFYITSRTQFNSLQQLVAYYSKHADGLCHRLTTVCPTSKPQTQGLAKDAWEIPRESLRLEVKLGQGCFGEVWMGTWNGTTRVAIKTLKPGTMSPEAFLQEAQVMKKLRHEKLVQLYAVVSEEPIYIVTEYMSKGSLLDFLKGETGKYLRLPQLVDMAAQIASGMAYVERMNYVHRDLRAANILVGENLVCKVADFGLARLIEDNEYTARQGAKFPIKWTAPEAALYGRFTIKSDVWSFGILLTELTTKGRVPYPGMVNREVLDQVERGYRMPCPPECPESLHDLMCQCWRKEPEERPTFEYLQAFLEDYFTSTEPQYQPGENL
T7 sequence (P00533 25-1210, species assumed): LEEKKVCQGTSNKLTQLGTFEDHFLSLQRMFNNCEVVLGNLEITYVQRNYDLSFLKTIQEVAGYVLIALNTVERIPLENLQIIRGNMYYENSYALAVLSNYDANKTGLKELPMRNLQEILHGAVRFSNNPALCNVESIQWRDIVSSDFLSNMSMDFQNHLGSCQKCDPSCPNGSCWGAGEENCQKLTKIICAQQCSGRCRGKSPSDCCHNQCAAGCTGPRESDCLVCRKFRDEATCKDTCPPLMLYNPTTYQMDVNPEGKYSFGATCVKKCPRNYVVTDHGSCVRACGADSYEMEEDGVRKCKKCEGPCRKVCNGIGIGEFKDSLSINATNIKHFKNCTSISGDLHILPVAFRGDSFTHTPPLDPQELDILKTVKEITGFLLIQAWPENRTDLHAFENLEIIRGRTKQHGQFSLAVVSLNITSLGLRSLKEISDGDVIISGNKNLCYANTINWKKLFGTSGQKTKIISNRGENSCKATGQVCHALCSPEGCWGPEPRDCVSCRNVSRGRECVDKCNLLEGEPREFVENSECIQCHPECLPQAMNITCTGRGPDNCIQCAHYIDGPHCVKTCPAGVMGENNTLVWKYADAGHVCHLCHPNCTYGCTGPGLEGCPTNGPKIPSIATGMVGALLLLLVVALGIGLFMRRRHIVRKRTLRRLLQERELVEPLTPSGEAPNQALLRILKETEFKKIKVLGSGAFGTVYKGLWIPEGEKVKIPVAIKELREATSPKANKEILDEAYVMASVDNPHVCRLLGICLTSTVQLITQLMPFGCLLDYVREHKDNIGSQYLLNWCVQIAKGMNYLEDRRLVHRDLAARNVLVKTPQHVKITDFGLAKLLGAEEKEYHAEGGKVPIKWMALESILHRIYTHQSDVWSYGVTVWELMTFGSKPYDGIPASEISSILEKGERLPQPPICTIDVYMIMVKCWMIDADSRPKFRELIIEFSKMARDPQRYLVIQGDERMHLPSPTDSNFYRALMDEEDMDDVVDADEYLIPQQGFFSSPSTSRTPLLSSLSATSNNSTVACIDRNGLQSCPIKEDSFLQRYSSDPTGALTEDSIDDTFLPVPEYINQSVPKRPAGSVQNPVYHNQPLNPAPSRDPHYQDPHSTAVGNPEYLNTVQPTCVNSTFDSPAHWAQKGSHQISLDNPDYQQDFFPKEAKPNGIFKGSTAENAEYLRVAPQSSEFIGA

Row | SMILES | IC50 (Lck) [µM] | IC50 (Lyn) [µM] | IC50 (Src) [µM] | IC50 (Fyn) [µM] | IC50 (Zap-70) [µM] | IC50 (Itk) [µM] | IC50 (EGFR) | IC50 (ErbB2) | IC50 (Kdr) | IC50 (Flt-1) [µM] | IC50 (c-Met) | IC50 (AKT) [µM] | IC50 (IGFR-1) | IC50 (PDGFRB [1]) [µM] | IC50 (Hck-1) [µM] | IC50 (ErbB4) [µM] | IC50 (Ret-1) [µM] | IC50 (FGFR1) [µM] | IC50 (PDGFRB [2])
1 | COc1cc(Nc2ncnc(-n3c(NC(C)c4ccc(F)cc4)nc4ccccc43)n2)cc(OC)c1OC (centres unmarked) [Compound 605] | 0.776 to 4.66 | 0.776 to 4.66 | > 8.73 | > 8.73 | > 8.73 | > 8.73 | > 8.73 µM | > 8.73 µM | < 0.776 µM | 0.776 to 4.66 | > 8.73 µM | > 8.73 | > 8.73 µM | < 0.776 | > 8.73 | > 8.73 | < 0.776 | < 0.776 | –
2 | COc1cc(Nc2ncnc(N(C)c3cccc(Cl)c3)n2)cc(OC)c1OC [Compound 603] | < 0.995 | 0.995 to 5.97 | 0.995 to 5.97 | 0.995 to 5.97 | > 11.2 | > 11.2 | < 0.995 µM | < 0.995 µM | < 0.995 µM | 0.995 to 5.97 | 0.995 to 5.97 µM | > 11.2 | 0.995 to 5.97 µM | 0.995 to 5.97 | 8.71 to 11.2 | 8.71 to 11.2 | < 0.995 | 0.995 to 5.97 | –
3 | CCN(CC)CCOc1cc(Nc2ncnc(Nc3cc(OC)c(OC)c(OC)c3)n2)ccc1OC [Compound 600] | < 0.802 | < 0.802 | 0.802 to 4.81 | 0.802 to 4.81 | > 9.03 | > 9.03 | > 9.03 µM | 4.81 to 7.02 µM | 0.802 to 4.81 µM | > 9.03 | > 9.03 µM | > 9.03 | > 9.03 µM | 0.802 to 4.81 | > 9.03 | 0.802 to 4.81 | 0.802 to 4.81 | > 9.03 | –
4 | CCC(Nc1nc2ccccc2n1-c1ncnc(Nc2cc(OC)c(OC)c(OC)c2)n1)c1ccccc1 (centres unmarked) [Compound 592] | 0.782 to 4.69 | 0.782 to 4.69 | 0.782 to 4.69 | 0.782 to 4.69 | > 8.8 | > 8.8 | 0.782 to 4.69 µM | 0.782 to 4.69 µM | < 0.782 µM | 0.782 to 4.69 | > 8.8 µM | > 8.8 | > 8.8 µM | < 0.782 | > 8.8 | 4.69 to 6.84 | < 0.782 | < 0.782 | –
5 | COc1cc(Nc2ncnc(Nc3ccc4c(cnn4Cc4ccccc4)c3)n2)cc(OC)c1OCCN1CCOCC1 [Compound 559] | < 0.687 | < 0.687 | < 0.687 | < 0.687 | > 7.72 | 4.12 to 6.01 | < 0.687 µM | < 0.687 µM | 0.687 to 4.12 µM | > 7.72 | > 7.72 µM | > 7.72 | 0.687 to 4.12 µM | < 0.687 | 4.12 to 6.01 | < 0.687 | < 0.687 | 0.687 to 4.12 | –
6 | COc1cc(Nc2ncnc(-n3c(NC(CCO)c4ccccc4)nc4ccccc43)n2)cc(OC)c1OC (centres unmarked) [Compound 591] | < 0.758 | 0.758 to 4.55 | < 0.758 | < 0.758 | > 8.53 | > 8.53 | > 8.53 µM | 4.55 to 6.63 µM | < 0.758 µM | < 0.758 | > 8.53 µM | > 8.53 | > 8.53 µM | < 0.758 | 0.758 to 4.55 | 6.63 to 8.53 | < 0.758 | < 0.758 | –
7 | COc1cc(Nc2ncnc(-n3c(NC4CCCc5ccccc54)nc4ccccc43)n2)cc(OC)c1OC (centres unmarked) [Compound 587] | 0.764 to 4.58 | 0.764 to 4.58 | > 8.59 | > 8.59 | > 8.59 | > 8.59 | 4.58 to 6.68 µM and 6.68 to 8.59 µM | 0.764 to 4.58 µM and 4.58 to 6.68 µM | < 0.764 µM and 0.764 to 4.58 µM | 0.764 to 4.58 | 6.68 to 8.59 µM and > 8.59 µM | > 8.59 | 6.68 to 8.59 µM and > 8.59 µM | – | – | 0.764 to 4.58 | < 0.764 | < 0.764 | 0.764 to 4.58 µM and > 8.59 µM
